The METLIN SMRT retention time set (Domingo-Almenara et al. 2019)

Assay: gradient 5% acetonitrile 3 min, to 50% in 2 min, to 85% in 15 min, held 3 min, 100 µL/min
Settings: column: Zorbax Extend-C18 2.1 x 50 mm; eluents: water / acetonitrile, 0.1% formic acid
In short: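 Pure standards were run in mixtures of ~100 molecules by HPLC coupled to a quadrupole time-of-flight mass spectrometer. The column was a Zorbax Extend-C18 (2.1 × 50 mm, 1.8 μm) at 100 μL/min, with water and acetonitrile each containing 0.1% formic acid, in positive and negative ionization mode. Dead and dwell volumes were 40 μL and 900 μL. Retention time was taken from computationally picked adduct peaks, each manually inspected, with data collected over 3 months.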

Compound	RP-LC retention time [s]
COc1ccc(OCC(=O)Nc2nc(-c3ccccc3)cs2)cc1	1050
CCNC(=O)NC1CCN(c2nc3ccccc3n(C)c2=O)CC1	676
O=C(Nc1ccc(Br)cc1F)c1ccc(-n2ccnc2)nn1	693
O=C(c1nc(Cn2nc(-c3ccc(F)cc3)ccc2=O)no1)N1CCC2(CC1)OCCO2	783
COc1ccc(COC(=O)C2=CN(Cc3ccc(OC)cc3)S(=O)(=O)N=C2C)cc1	923
CC1=NS(=O)(=O)N(C)C=C1C(=O)OCc1nc(-c2ccccc2Cl)no1	954
O=C(c1cccs1)N1CCc2ccc(NS(=O)(=O)c3ccccc3Cl)cc2C1	804
Cc1cc(-c2nnc(-c3ccc(F)cc3)o2)c(C)n1CC(=O)Nc1ccccc1F	959
CCN(CC)C(=O)Cn1nc2nc(Nc3ccc(F)cc3)ccn2c1=O	669
O=C(NCC1(c2cccs2)CCOCC1)c1cc(=O)c2ccccc2o1	716
COc1ccc2c(c1)CCc1sc(NC(=O)c3cccc(Cl)c3)nc1-2	1180
COC(=O)c1cc(Cl)ccc1NC(=O)COc1nc(C)nc2ccccc12	897
O=C(NCCc1c[nH]c2ccccc12)c1cc(-c2ccccn2)nc2ccccc12	868
Cc1ccc(Nc2c(-c3cc(Br)ccc3F)nc3ccc(C)cn23)cc1	812
CCCn1cc(C(=O)Nc2ccc(OC)c(Cl)c2)c(=O)c2ccc(C)nc21	1210
O=C(NCc1ccc2c(c1)OCO2)c1c(O)c2cccnc2[nH]c1=O	889
CC(C)(C)c1ccc(-c2nc(C3CC(=O)N(c4ccc(F)c(Cl)c4)C3)no2)cc1 (centres undefined)	1360
Cc1cc(OCC(=O)NCc2ccc3c(c2)OCO3)nc(N2CCCCC2)n1	592
O=C(c1cc2ccccc2o1)N1CCN(C(=O)C2COc3ccccc3O2)CC1 (centres undefined)	829
O=C(Nc1ccc(N2CCOCC2)cc1)C1CCN(c2cnc3nccnc3c2)CC1	610
CCCn1ccc2oc(C)c(C(=O)NC(C)c3ccc(OCC)cc3)c2c1=O (centres undefined)	1070
CC(C(=O)Nc1c(F)cccc1F)C1CCN(C(=O)Nc2ccc(Cl)cc2)CC1 (centres undefined)	865
CCc1nc2cc(N3CCCC(C(=O)NCCN4CCN(C)CC4)C3)cnc2nc1CC (centres undefined)	583

Compound	RP-LC retention time [s]
O=C(Nc1cccc(F)c1)N1CC2CCCN2c2ccccc21 (centres undefined)	1110
O=C(Cn1nc2c3cc(-c4ccc(F)cc4)nn3ccn2c1=O)NCc1ccco1	796
O=S(=O)(NCCN1CCOCC1)c1cc(-c2noc(C3CCCC3)n2)cs1	678
O=C1C2N=NN(Cc3nc(-c4ccc5c(c4)OCO5)no3)C2C(=O)N1c1ccc2c(c1)OCO2 (centres undefined)	899
CCCN1C(=O)CCc2cc(NC(=O)c3cc4ccccc4[nH]3)ccc21	882
CCOC(=O)C1CCN(C(=O)C2CCCN(S(=O)(=O)c3ccc(OC)c(Cl)c3)C2)CC1 (centres undefined)	940
CCCn1cc(S(=O)(=O)Nc2ccc(C)cc2F)c2cccnc21	936
Cc1ccc(NC(=O)C2CCN(C(=O)c3ncn4c3COC(c3ccc(F)cc3)C4)CC2)c(F)c1 (centres undefined)	813
Cc1cc(-c2nnc(-c3ccccc3)o2)c(C)n1CC(=O)Nc1ccc(Cl)cc1	1020
CC(=O)c1ccc(N=NC(C(N)=O)C2NC(C)(C)Cc3ccccc32)cc1 (centres undefined)	794
Cc1oc(-c2ccccc2)nc1Cc1noc(-c2cccc(F)c2)n1	1160
CC(C)[C@@H](CN1CC[C@@](C)(c2cccc(O)c2)[C@@H](C)C1)NC(=O)[C@H]1Cc2ccc(O)cc2CN1	555
COc1ccc(N2CC(c3noc(-c4ccc(OC(F)(F)F)cc4)n3)CC2=O)cc1 (centres undefined)	1070
Cc1ccc(Cn2nc3c(S(=O)(=O)N4CCOCC4)cccn3c2=O)cc1	774
COc1ccc2[nH]cc(CCNC(=O)c3cc(C)nc4c3c(=O)n(C)c(=O)n4C)c2c1	699
COC(=O)Nc1ccc(S(=O)(=O)NCc2ccc(C)cc2)cc1	788
CC(C)(C)C(=O)Nc1ccc(-c2nc(-c3ccccc3)co2)cc1	1110
Cc1ccc(CNC(=O)c2ncn3c2C(=O)N(C2CC2)C(C)(C(=O)NCc2cccc(C)c2)C3)cc1 (centres undefined)	827
Cn1cc(-c2nc(C(=O)Nc3cccc(F)c3)cs2)c2cccnc21	1020
O=C(NCCc1ccccn1)C1(CCO)CCN(c2ncccn2)C1 (centres undefined)	526
CCN1C(=O)c2cc(S(=O)(=O)NCc3ccccc3C)ccc2Oc2cccnc21	1020
Cc1ccc(CNC(=O)Nc2ccc(-c3nc(-c4ccc(C)cc4C)co3)cc2)cc1	1240
CCn1cc(S(=O)(=O)Nc2cc(C)ccc2F)c2cccnc21	846

Compound	RP-LC retention time [s]
Cc1nc(-c2noc(-c3ccccc3)n2)cn1CC(=O)NCc1cccs1	789
COc1ccccc1C(=O)Nc1cc(-c2ccccn2)no1	980
CC(C)CNC(=O)C1Cn2cccc2C(=O)N1C (centres undefined)	624
CN(C)[C@@H]1CN(C(=O)c2cccc(Cl)c2)C[C@H]1CO	559
CCc1nc(-c2csc(S(=O)(=O)N3CCC(C(=O)NCc4ccc(C)cc4)CC3)c2)no1	662
O=C(Cn1cnc2nc(N3CCCC(C(=O)NC4CC4)C3)sc2c1=O)Nc1ccccc1 (centres undefined)	663
Cc1ccsc1C(=O)Nc1cnc(N2CCCCC2)nc1	915
O=C(NC1CCCCCC1)C1CCN(C(=O)C2Sc3ccccc3NC2=O)CC1 (centres undefined)	613
CCc1ccccc1NC(=O)NCC(c1cccnc1)c1c[nH]c2ccccc12 (centres undefined)	669
CC(NC(=O)NC1CCCCC1)C(c1cccs1)N1CCN(C)CC1 (centres undefined)	573
COc1cccc(NC(=O)C2CCN(c3nnc4c(Cl)cccn34)CC2)c1	666
COCCC1CCN(C(=O)c2cc(F)ccc2F)CC1	749
COc1ccc(-n2c(=O)n(C)c(=O)c3cc(C(=O)Nc4ccc(F)c(C)c4)cnc32)cc1	955
O=C1CN(C(=O)c2cnccn2)c2ccccc2N1	569
Cc1ccc(-n2nnnc2CN2CCN(S(=O)(=O)N(C)C)CC2)cc1	756
COC(=O)c1cnc2nc(-c3ccccc3)nn2c1C	832
CC(C)OCCCNC(=O)C(C)n1c2ccccc2c2cnn(C)c(=O)c21 (centres undefined)	803
CS(=O)(=O)N1C[C@H]2CCN(Cc3cccc(Cl)c3F)C[C@H]21	607
Cn1cnnc1-c1nn(C)c2c1CN(C(=O)CCc1cc(Cl)no1)CC2	629
COc1cccc(-c2nnc(Cc3nc(-c4cccc(Br)c4)no3)o2)c1	1090
CCNc1cc(N2CCCC(CCC(=O)N3CCC(C(=O)OCC)CC3)C2)ncn1 (centres undefined)	646
Cn1c(=O)c(-c2ccc(C(=O)NCCCN3CCCC3)cc2)nc2ccccc21	616
O=[N+]([O-])c1cccc(S(=O)(=O)Nc2ccc(O)c(-c3c(O)ccc4ccccc34)c2)c1	801

Compound	RP-LC retention time [s]
COc1ccc(OCc2nnc3sc(-c4ccncc4)nn23)cc1	710
O=C(Nc1ccc(C(F)(F)F)cc1)N1CCCC1c1nncn1C1CCCC1 (centres undefined)	781
COc1cc(Cl)c(NC(=O)C2CCCN(c3nccnc3Sc3ccc(C)cc3)C2)c(OC)c1 (centres undefined)	1260
Cn1cc(CC(=O)NCc2cc(F)ccc2F)c2cccnc21	683
Cc1ccc(-c2nc(NC(=O)c3cncc(Br)c3)sc2C)cc1	1180
CCOC(=O)c1cnc2nc(C)ccc2c1Nc1ccc(O)cc1	618
CCOc1ccccc1C(=O)NC1CCN(C(=O)c2cn(-c3ccc(C)c(C)c3)nn2)CC1	873
COc1cccc(-c2cc(CNC(=O)c3sc(-n4cccc4)nc3C)no2)c1	934
COc1ccccc1N1CCN(CCCNc2c(C)c(=O)n(C)c(=O)n2C)CC1	646
CC1Oc2ccc(-c3csc(NC(=O)c4cccs4)n3)cc2N(C)C1=O (centres undefined)	949
CCCCN(C)C(=O)C1CCN(c2cncnc2N2CCCCC2)CC1	661
O=C(Cc1cccs1)N1CCCn2cc(-c3ccccc3F)nc21	848
COc1ccc(S(=O)(=O)N2C[C@@H](F)C[C@H]2C(=O)N2CCCCC2)cc1	762
O=C(Nc1ccc2c(c1)OCO2)C1CCN(c2cc(N3CCCCC3)ncn2)CC1	677
O=C(Nc1cccc(F)c1)N1CCCC1c1nc(-c2ccc(F)cc2F)no1 (centres undefined)	998
CC1CCc2nc(NC(=O)CCS(=O)(=O)Cc3ccccc3)sc2C1 (centres undefined)	853
CCCN(C)C(=O)CCC1CCN(c2cc(NC3CC3)ncn2)CC1	648
Clc1ccc(-c2nc(N3CCC(N4CCCCC4)CC3)c3ccccc3n2)cc1	616
CCCn1cc(CCNC(=O)Nc2cc(C)ccc2C)c2cccnc21	808
O=C(CN1C(=O)c2ccccc2C1=O)Nc1nnc(-c2ccc3c(c2)OCCO3)o1	678
